What was measured:
Assay in all cases: relative viability (nuclei count vs DMSO), 5 days (fraction); higher = more cells survive
Axitinib + OSI-027 = compound: CNC(=O)c1ccccc1Sc1ccc2c(/C=C/c3ccccn3)n[nH]c2c1 [Axitinib] + COc1cccc2cc(-c3nc([C@H]4CC[C@H](C(=O)O)CC4)n4ncnc(N)c34)[nH]c12 [OSI-027] (partner 0.5 µM)
In short: (§1)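 The day after seeding in 1536-well plates, lung cancer cell lines were treated by pin tool with a single drug, or with a fixed anchor-drug dose together with five library-drug doses (not always all listed) in √10 steps. After 5 days, a combined fix-and-stain solution (final 0.05% Triton X-100, 1% formaldehyde, 1 ug/ml Hoechst) was added. Nuclei counted on 4× images gave relative viability as treated counts over vehicle counts, reported as the median of duplicate plates.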

[1] = compound: CC1=CC=C(C=C1)C(=O)CN2C3=C(CCCC3)SC2=N [Pifithrin_alpha] + Cc1nc(Nc2ncc(C(=O)Nc3c(C)cccc3Cl)s2)cc(N2CCN(CCO)CC2)n1 [Dasatinib] (partner 0.075 µM)
In short: as §1

Axitinib + Pemetrexed = compound: CNC(=O)c1ccccc1Sc1ccc2c(/C=C/c3ccccn3)n[nH]c2c1 [Axitinib] + Nc1nc2[nH]cc(CCc3ccc(C(=O)N[C@@H](CCC(=O)O)C(=O)O)cc3)c2c(=O)[nH]1 [Pemetrexed] (partner 0.2 µM)
In short: as §1

[2] = compound: CC1=CC=C(C=C1)C(=O)CN2C3=C(CCCC3)SC2=N [Pifithrin_alpha] + Cc1nc(NC(=O)N2CCC[C@H]2C(N)=O)sc1-c1ccnc(C(C)(C)C(F)(F)F)c1 [Alpelisib] (partner 2 µM)
In short: as §1

Cell Line | relative viability (Axitinib + OSI-027; first compound 0.005 µM) | relative viability (Axitinib + OSI-027; first compound 0.01581 µM) | relative viability (Axitinib + OSI-027; first compound 0.05 µM) | relative viability (Axitinib + OSI-027; first compound 0.1581 µM) | relative viability (Axitinib + OSI-027; first compound 0.5 µM) | relative viability ([1]; first compound 1 µM) | relative viability ([1]; first compound 3.162 µM) | relative viability ([1]; first compound 10 µM) | relative viability ([1]; first compound 31.62 µM) | relative viability ([1]; first compound 100 µM) | relative viability (Axitinib + Pemetrexed; first compound 0.005 µM) | relative viability (Axitinib + Pemetrexed; first compound 0.01581 µM) | relative viability (Axitinib + Pemetrexed; first compound 0.05 µM) | relative viability (Axitinib + Pemetrexed; first compound 0.1581 µM) | relative viability (Axitinib + Pemetrexed; first compound 0.5 µM) | relative viability ([2]; first compound 1 µM) | relative viability ([2]; first compound 3.162 µM) | relative viability ([2]; first compound 10 µM) | relative viability ([2]; first compound 31.62 µM) | relative viability ([2]; first compound 100 µM)
NCI-H2009 | 0.699 | 0.684 | 0.646 | 0.697 | 0.887 | 0.316 | 0.293 | 0.301 | 0.186 | 0.244 | 0.997 | 1.06 | 1 | 1.1 | 1.05 | 1.25 | 1.11 | 1.1 | 0.835 | 0.827
ChaGo-K-1 | 0.547 | 0.505 | 0.67 | 0.554 | 0.591 | 0.641 | 0.594 | 0.614 | 0.509 | 0.497 | 0.27 | 0.262 | 0.252 | 0.267 | 0.274 | – | – | – | – | –
SW 900 | 0.646 | 0.536 | 0.562 | 0.564 | 0.699 | 0.366 | 0.487 | 0.318 | 0.349 | 0.307 | 0.479 | – | 0.469 | 0.505 | 0.479 | – | – | – | – | –
NCI-H2342 | 0.571 | 0.614 | 0.663 | 0.633 | 0.638 | 0.255 | 0.316 | 0.317 | 0.31 | 0.31 | 0.753 | 0.792 | 0.707 | 0.782 | 0.669 | – | – | – | – | –
NCI-H460 | 0.692 | 0.603 | 0.665 | 0.645 | 0.79 | 0.433 | 0.414 | 0.35 | 0.31 | 0.266 | 0.0553 | 0.0645 | 0.0676 | 0.0593 | 0.0611 | 0.529 | 0.57 | 0.384 | – | 0.305
NCI-H322M | 0.569 | 0.575 | 0.546 | 0.536 | 0.601 | 0.25 | 0.258 | 0.245 | 0.245 | 0.226 | 0.586 | 0.691 | 0.679 | 0.628 | 0.627 | 0.777 | 0.651 | 0.802 | 0.581 | 0.87
HCC-827 | 0.822 | 0.745 | 0.826 | 0.759 | 0.933 | 0.336 | 0.333 | 0.351 | 0.429 | 0.363 | 0.228 | 0.158 | 0.279 | 0.296 | 0.275 | 0.878 | 1.03 | 0.919 | 0.626 | 0.823
HOP-62 | 0.825 | 0.865 | 0.814 | 0.872 | 0.923 | 0.726 | 0.589 | 0.578 | 0.698 | 0.638 | 0.378 | 0.328 | 0.31 | 0.41 | 0.482 | 1.18 | 1.1 | 0.848 | 0.62 | 0.931
Calu-6 | – | – | – | – | – | – | – | – | – | – | – | – | – | – | – | 0.884 | 0.918 | 0.961 | 0.622 | 0.857
NCI-H2023 | 0.437 | 0.446 | 0.396 | 0.337 | 0.468 | 0.432 | 0.324 | 0.348 | – | 0.275 | 0.237 | 0.232 | 0.177 | 0.252 | 0.291 | 0.589 | 0.396 | 0.454 | 0.289 | 0.367
NCI-H1648 | 0.258 | 0.238 | – | 0.245 | 0.249 | – | – | – | – | – | 0.726 | 0.764 | 0.702 | 0.958 | 0.758 | – | – | – | – | –
ABC-1 | 0.597 | 0.436 | 0.482 | 0.456 | 0.448 | 0.413 | 0.439 | 0.435 | 0.398 | 0.453 | – | – | – | – | – | 0.945 | 0.983 | 0.732 | 0.682 | 0.661
NCI-H727 | 0.785 | 0.425 | 0.54 | 0.528 | 0.699 | 0.357 | 0.421 | 0.394 | – | 0.346 | – | – | – | – | – | 0.55 | 0.533 | 0.512 | 0.415 | 0.492
NCI-H1650 | 0.706 | 0.513 | 0.721 | 0.64 | 1.01 | – | 0.242 | 0.246 | 0.25 | 0.212 | 0.415 | 0.352 | 0.361 | 0.436 | 0.408 | – | – | – | – | –
NCI-H1703 | – | – | – | – | – | – | – | – | – | – | – | – | – | – | – | 0.317 | 0.306 | 0.252 | 0.366 | 0.377
HCC-44 | 0.451 | 0.439 | 0.404 | 0.605 | 0.614 | – | – | – | – | – | 0.625 | 0.631 | 0.626 | 0.624 | 0.676 | 0.681 | 0.699 | 0.715 | 0.453 | 0.591
NCI-H522 | 0.765 | 0.665 | 0.572 | 0.857 | 0.647 | 0.972 | 0.887 | 0.779 | 0.757 | 0.816 | 1.22 | 1.14 | 1.07 | 1.07 | 0.944 | – | – | – | – | –
NCI-H1623 | 0.455 | 0.398 | 0.424 | 0.436 | 0.454 | 0.463 | 0.603 | 0.523 | 0.56 | 0.448 | – | – | – | – | – | – | – | – | – | –
